Measurements as given in PubChem BioAssay AID2060503 (Molecular Pharmacology Branch, DTP, NCI, 2025).
pIC50: −log10 of the molar value.

Test system: 817829-284-R-J1-PDC complex spheroids, viability
Assay: Anticancer human tumor 817829-284-R-J1-PDC patient-derived colon adenocarcinoma cell line growth inhibition [GQUAD]
Conditions: for pIC50: curve of first compound; for viability, T/C: stronger effect = lower value
How it was run: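 Multi-cell-type spheroids of tumor cells with HUVEC and mesenchymal stem cells, treated with drug combinations. Concentrations descend in half-log steps from near clinical Cmax, or from 10 microM where Cmax is unknown; viability read-out.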

[1] = second compound 0.0316 µM, first compound 0.0316 µM
[2] = second compound 0.0316 µM, first compound 0.1 µM
[3] = second compound 0.0316 µM, first compound 0.316 µM
[4] = second compound 0.0316 µM, first compound 1 µM
[5] = second compound 0.0316 µM, first compound 3.16 µM
[6] = second compound 0.0316 µM, first compound 10 µM
[7] = second compound 0.1 µM, first compound 0.0316 µM
[8] = second compound 0.1 µM, first compound 0.1 µM
[9] = second compound 0.1 µM, first compound 0.316 µM
[10] = second compound 0.1 µM, first compound 1 µM
[11] = second compound 0.1 µM, first compound 3.16 µM
[12] = second compound 0.1 µM, first compound 10 µM
[13] = second compound 0.316 µM, first compound 0.0316 µM
[14] = second compound 0.316 µM, first compound 0.1 µM
[15] = second compound 0.316 µM, first compound 0.316 µM
[16] = second compound 0.316 µM, first compound 1 µM
[17] = second compound 0.316 µM, first compound 3.16 µM
[18] = second compound 0.316 µM, first compound 10 µM
[19] = second compound 1 µM, first compound 0.0316 µM
[20] = second compound 1 µM, first compound 0.1 µM
[21] = second compound 1 µM, first compound 0.316 µM
[22] = second compound 1 µM, first compound 1 µM
[23] = second compound 1 µM, first compound 3.16 µM
[24] = second compound 1 µM, first compound 10 µM
[25] = second compound 3.16 µM, first compound 0.0316 µM
[26] = second compound 3.16 µM, first compound 0.1 µM
[27] = second compound 3.16 µM, first compound 0.316 µM
[28] = second compound 3.16 µM, first compound 1 µM
[29] = second compound 3.16 µM, first compound 3.16 µM
[30] = second compound 3.16 µM, first compound 10 µM
[31] = second compound 10 µM, first compound 0.0316 µM
[32] = second compound 10 µM, first compound 0.1 µM
[33] = second compound 10 µM, first compound 0.316 µM
[34] = second compound 10 µM, first compound 1 µM
[35] = second compound 10 µM, first compound 3.16 µM
[36] = second compound 10 µM, first compound 10 µM
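Also: spheroids exposed to agents for 7 days before readout.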
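For viability, T/C in this document: percent viability relative to DMSO vehicle control taken as 100%.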

`C#Cc1c(F)ccc2cc(O)cc(-c3ncc4c(N5CC6CCC(C5)N6)nc(OCC56CCCN5CC(F)C6)nc4c3F)c12` (stereo unspecified) + Cc1[nH]c2ccc(F)cc2c1-c1nc2c3cccnc3c3ncccc3c2[nH]1 was tested, and the pIC50 (second compound 0.0316 µM) was less than 5.00, the pIC50 (second compound 0.1 µM) was less than 5.00 and the pIC50 (second compound 0.316 µM) was less than 5.00. The pIC50 (second compound 1 µM) was 5.25, the pIC50 (second compound 3.16 µM) was greater than 7.50 and the pIC50 (second compound 10 µM) was greater than 7.50. The viability, T/C [1] was 96.1%, the viability, T/C [2] was 95% and the viability, T/C [3] was 96.2%. The viability, T/C [4] was 90.4%, the viability, T/C [5] was 98% and the viability, T/C [6] was 118%. For the same compound, the viability, T/C [7] was 97.6%, the viability, T/C [8] was 108% and the viability, T/C [9] was 88.2%. For the same compound, the viability, T/C [10] was 102%, the viability, T/C [11] was 91.1% and the viability, T/C [12] was 108%. The viability, T/C [13] was 91%, the viability, T/C [14] was 96.1% and the viability, T/C [15] was 99.7%. It also gave a viability, T/C [16] of 86.6%, a viability, T/C [17] of 98.8% and a viability, T/C [18] of 81.1%. The viability, T/C [19] was 102%, the viability, T/C [20] was 90.4% and the viability, T/C [21] was 103%. The viability, T/C [22] was 93%, the viability, T/C [23] was 94.5% and the viability, T/C [24] was 4.87%. For the same compound, the viability, T/C [25] was 3.89%, the viability, T/C [26] was 4.3% and the viability, T/C [27] was 3.9%. It also gave a viability, T/C [28] of 3.3%, a viability, T/C [29] of 1.62% and a viability, T/C [30] of 0.11%. For the same compound, the viability, T/C [31] was 3%, the viability, T/C [32] was 12.8% and the viability, T/C [33] was 3.04%. It also gave a viability, T/C [34] of 2.02%, a viability, T/C [35] of 2.19% and a viability, T/C [36] of 0.17%.

With `CC(=O)O[C@H]1C(=O)[C@@]2(C)[C@H]([C@H](OC(=O)c3ccccc3)[C@]3(O)C[C@H](OC(=O)[C@H](O)[C@@H](NC(=O)c4ccccc4)c4ccccc4)C(C)=C1C3(C)C)[C@]1(OC(C)=O)CO[C@@H]1C[C@@H]2O` + Cc1[nH]c2ccc(F)cc2c1-c1nc2c3cccnc3c3ncccc3c2[nH]1 the pIC50 (second compound 0.0316 µM) was greater than 7.50, the pIC50 (second compound 0.1 µM) was greater than 7.50 and the pIC50 (second compound 0.316 µM) was greater than 7.50. The pIC50 (second compound 1 µM) was greater than 7.50, the pIC50 (second compound 3.16 µM) was greater than 7.50 and the pIC50 (second compound 10 µM) was greater than 7.50. For the same compound, the viability, T/C [1] was 7.69%, the viability, T/C [2] was 5% and the viability, T/C [3] was 4.12%. The viability, T/C [4] was 4.33%, the viability, T/C [5] was 3.69% and the viability, T/C [6] was 5.32%. The viability, T/C [7] was 6.62%, the viability, T/C [8] was 5.4% and the viability, T/C [9] was 5.3%. For the same compound, the viability, T/C [10] was 3.81%, the viability, T/C [11] was 4.86% and the viability, T/C [12] was 4.62%. For the same compound, the viability, T/C [13] was 7.16%, the viability, T/C [14] was 5.87% and the viability, T/C [15] was 4.46%. For the same compound, the viability, T/C [16] was 3.72%, the viability, T/C [17] was 4.25% and the viability, T/C [18] was 5.31%. For the same compound, the viability, T/C [19] was 7.59%, the viability, T/C [20] was 6.66% and the viability, T/C [21] was 6.33%. It also gave a viability, T/C [22] of 6.63%, a viability, T/C [23] of 6.34% and a viability, T/C [24] of 6.37%. It also gave a viability, T/C [25] of 3.48%, a viability, T/C [26] of 4.37% and a viability, T/C [27] of 3.76%. The viability, T/C [28] was 3.37%, the viability, T/C [29] was 3.38% and the viability, T/C [30] was 3.67%. It also gave a viability, T/C [31] of 3.27%, a viability, T/C [32] of 3.76% and a viability, T/C [33] of 3.43%. The viability, T/C [34] was 2.91%, the viability, T/C [35] was 3.42% and the viability, T/C [36] was 3.04%.

With `CCCS(=O)(=O)Nc1ccc(F)c(C(=O)c2c[nH]c3ncc(-c4ccc(Cl)cc4)cc23)c1F` + Cc1[nH]c2ccc(F)cc2c1-c1nc2c3cccnc3c3ncccc3c2[nH]1 the pIC50 (second compound 0.0316 µM) was 5.23, the pIC50 (second compound 0.1 µM) was 5.27 and the pIC50 (second compound 0.316 µM) was 5.23. For the same compound, the pIC50 (second compound 1 µM) was 5.26, the pIC50 (second compound 3.16 µM) was 7.17 and the pIC50 (second compound 10 µM) was 7.26. The viability, T/C [1] was 107%, the viability, T/C [2] was 106% and the viability, T/C [3] was 102%. The viability, T/C [4] was 107%, the viability, T/C [5] was 85% and the viability, T/C [6] was 19.3%. The viability, T/C [7] was 117%, the viability, T/C [8] was 107% and the viability, T/C [9] was 111%. It also gave a viability, T/C [10] of 95.4%, a viability, T/C [11] of 74.1% and a viability, T/C [12] of 22.6%. The viability, T/C [13] was 102%, the viability, T/C [14] was 113% and the viability, T/C [15] was 106%. The viability, T/C [16] was 92%, the viability, T/C [17] was 84.9% and the viability, T/C [18] was 21.6%. For the same compound, the viability, T/C [19] was 117%, the viability, T/C [20] was 106% and the viability, T/C [21] was 119%. It also gave a viability, T/C [22] of 101%, a viability, T/C [23] of 80.8% and a viability, T/C [24] of 16.9%. It also gave a viability, T/C [25] of 60.6%, a viability, T/C [26] of 40.4% and a viability, T/C [27] of 38%. The viability, T/C [28] was 23.6%, the viability, T/C [29] was 21.1% and the viability, T/C [30] was 10.1%. The viability, T/C [31] was 67.5%, the viability, T/C [32] was 30.9% and the viability, T/C [33] was 12%. It also gave a viability, T/C [34] of 5.4%, a viability, T/C [35] of 4.9% and a viability, T/C [36] of 5.95%.
